{"source": "patent US5449773A", "about": "“Platinum complexes of sucrose derivatives” (priority 1995, dated 1995)", "key": {"[1]": {"tested_on": "E. coli", "details": "cited from earlier work"}, "[2]": {"details": "cells; cited from earlier work"}, "[3]": {"tested_on": "Lewis lung carcinoma", "experiment": "Effect on intraperitoneally implanted Lewis lung carcinoma in mice (Examples 10 and 12);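 further: C57BL/6 mice bearing Lewis lung tumor cells implanted intraperitoneally, treated intraperitoneally in distilled water starting day 1 after implantation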", "description": "Young adult syngeneic C57BL/6 mice (ca. 17-19 grams) were implanted intraperitoneally with 3-5×10^5 Lewis Lung tumor cells. The respective diaminosucrose platinum (II) compounds were then administered intraperitoneally in distilled water commencing the first day after tumor implantation.\nLewis Lung tumor cells (3-5×10^5) were inoculated intraperitoneally (i.p.) into young adult syngeneic C57BL/6 mice (ca. 17-19g body weight). Administration of the platinum complexes (contained in 0.1 ml of distilled water) was started on day 1 after tumor implantation."}, "[4]": {"tested_on": "human KB cell cultures", "experiment": "Cytotoxicity test on human KB cell cultures (Examples 8 and 9)", "details": "cells continuously cultured with the complex", "description": "(§1) The cytotoxicity of diaminosucrose platinum complexes was evaluated on human KB cell cultures as follows:\n(§2) Graded doses of the respective diaminosucrose platinum (II) complexes tested contained in 0.1 ml of MEM medium were added to tube cultures of KB cells (contained in 1 ml of MEM medium with 4% fetal calf serum) immediately after seeding of ca. 2×10,000 cells/mi.\n(§3) The incubated cultures were seeded every 3 days by 3 times dilution with the particular complex tested to maintain exponential cell growth.\n(§4) After incubation the relative cytotoxic activity of the various platinum complexes was evaluated as follows:\n(§5) Treated and untreated (control) tumor cell lines were viewed under the microscope and the number of dead cells quantified by visual means. Zero activity means that 100% of the treated cells survived, i.e., like the control."}, "[5]": {"tested_on": "human KB cell cultures", "description": "as §1, §2, §3, §4, §5"}, "[6]": {"tested_on": "P388 leukemia", "experiment": "Effect of sucrose bis(platinum) complex on P388 leukemia in syngeneic DBA/2 mice (Example 15)", "type": "in vivo", "source_text": "The effect of the sucrose bis(platinum) complex on P388 leukemia cells in syngeneic DBA/2 mice was further evaluated."}, "[7]": {"tested_on": "P388 leukemia", "experiment": "Effect of dose of sucrose bis(platinum) complex on P388 leukemia in syngeneic DBA/2 mice (Example 14)", "type": "in vivo", "details": "for Changes of body weight day 1 to 2 / Increase in life span / Mean survival time: day 1", "procedure": "The effect of dose of sucrose bis(platinum complex on P388 leukemia cells in syngeneic DBA/2 mice was evaluated. A 0.1 ml of 10× dilution of P388 ascites (ca. 10^6 cells) was injected intraperitoneally (i.p.) into syngeneic DBA/2 mice (ca. 20 g body weight). The i.p. administration was effected on day 1 only. The bis(platinum) complex (1.0 mg/0.1 ml distilled water) had been stored for 77 days at 4° C. before administration."}, "[8]": {"tested_on": "Lewis lung carcinoma", "experiment": "Effect of dose of sucrose bis(platinum) complex on intraperitoneally implanted Lewis lung carcinoma in mice (Example 13)", "type": "in vivo", "procedure": "The effect of dosage of the sucrose bis(platinum) complex on intraperitoneally implanted Lewis lung carcinoma cells was evaluated in mice. […] Administration of the complex (in 0.1 ml of distilled water) was effected on day 2 and day 4 after implantation."}, "[9]": {"tested_on": "human KB cell cultures", "experiment": "Cytotoxicity test of sucrose mono-, bis- and tris(platinum) complexes on human KB cell cultures (Example 11)", "type": "cell-based", "details": "10 μg/ml", "procedure": "Cultures were seeded after 3 days by 3 times dilution with the platinum complex in order to maintain exponential growth.\nThe platinum complexes tested were cis-platin, a mono(platinum) complex of 6,6'-diamino-6,6'-dideoxy-1',2,3,3',4,4'-hexa-O-methylsucrose, a bis(platinum) complex of 6,6'-diamino-6,6'-dideoxy-1',2-anhydrosucrose and a tris(platinum) complex of 1',6,6' -triamino-1',6,6'-trideoxy-2,3,3',4,4'-penta-O-methylsucrose."}, "[10]": {"experiment": "Solubility of sucrose platinum complexes", "type": "physicochemical", "details": "water, limits the dose"}, "[11]": {"details": "2 mg×2 i.p., listed as sucrose bis(platinum) complex"}, "[12]": {"details": "0.5 mg/mouse i.p., day 1, 2, 3, 6"}}, "note": "Entries after “also recorded” stand apart in the source; their conditions may differ. Read-outs that look alike come from different tables or passages of the source.", "data": [{"smiles": "N.N.[Cl][Pt][Cl]", "note": "[Sample No. 1, Cis-dichlorodiamine platinum]", "values": [{"measurement": "prevention of DNA replication (in words)", "setting": "[1]; listed as cisplatin", "result": "have the ability to prevent DNA replication in E. coli"}, {"measurement": "saturability and inhibition of accumulation (in words)", "setting": "[2]", "result": "accumulation is not saturable up to 3 mM cisplatin and cannot be inhibited with structural analogs"}]}, {"smiles": "COCC1(OC2OC(CN)C(OC)C(OC)C2OC)OC(CN)C(OC)C1OC.[Cl][Pt][Cl]", "note": "(stereo not drawn) [Sample No. 2, N-N'-(cis-dichloroplatinato)-6,6'-diamino-6,6'-dideoxy-1',2,3,3',4,4'-hexa-O-methylsucrose]", "values": [{"measurement": "Changes of body weight day 1 to 7", "setting": "[3]; 2 mg/mouse i.p., day 1, 3", "result": "+2.0 g"}, {"measurement": "Increase in life span", "setting": "[3]; 2 mg/mouse i.p., day 1, 3", "result": -1, "unit": "%"}, {"measurement": "Mean survival days", "setting": "[3]; 2 mg/mouse i.p., day 1, 3", "result": 13.8, "unit": "days"}, {"measurement": "No. of mice survival/total", "setting": "[3]; 2 mg/mouse i.p., day 1, 3", "result": "0/5"}, {"measurement": "antitumor activity (in words)", "setting": "[3]; 2 mg×2 i.p.", "result": "no antitumor activity"}, {"measurement": "toxicity to the host / body weight (in words)", "setting": "[3]; 2 mg×2 i.p., listed as sucrose mono(platinum) complex", "result": "no antitumor activity nor toxicity to the host"}, {"measurement": "minimum cytotoxic concentration", "setting": "[4]", "result": 125, "unit": "µg/mL"}]}, {"smiles": "COCC1(OC2OC(CN)C(OC)C(OC)C2OC)OC(CN)C(OC)C1OC.O=C1[O][Pt][O]C(=O)C12CC2", "note": "(stereo not drawn) [Sample No. 5, N,N'-(cis-[1,1-cyclopropanedicarboxylato-platinato)]-6,6'-diamino-6,6'-dideoxy-1',2,3,3',4,4'-hexa-O-methylsucrose]", "values": [{"measurement": "cytotoxicity (in words)", "setting": "[5]", "result": "not very toxic"}]}, {"smiles": "N.N.NCC1OC2OC3(COC2C(O)C1O)OC(CN)C(O)C3O.[Cl][Pt][Cl].[Cl][Pt][Cl]", "note": "(stereo not drawn) [Sample No. 6, N,N'-bis[cis-amminedichloroplatinato]-6,6'-diamino-6,6'-dideoxy-1',2-anhydrosucrose]", "values": [{"measurement": "Changes of body weight day 1 to 2", "setting": "[6]; 1.0 mg/mouse i.p., day 1", "result": -1.0, "unit": "g"}, {"measurement": "Increase in life span", "setting": "[6]; 1.0 mg/mouse i.p., day 1", "result": "> 89", "unit": "%"}, {"measurement": "Mean survival time", "setting": "[6]; 1.0 mg/mouse i.p., day 1", "result": "> 16.6"}, {"measurement": "prolongation of survival time over the controls", "setting": "[6]; dose of 1.0", "result": 84, "unit": "%"}, {"measurement": "antitumor activity / cure (in words)", "setting": "[6]; dose of 1.0, listed as sucrose bis(platinum) complex", "result": "significant antitumor activity; also recorded: one mouse appearing cured"}, {"measurement": "antitumor activity (in words)", "setting": "[7]; 0.1 mg i.p.", "result": "no antitumor activity"}, {"measurement": "Changes of body weight day 1 to 2", "setting": "[7]; 0.1 mg/mouse i.p.", "result": -0.2, "unit": "g"}, {"measurement": "Increase in life span", "setting": "[7]; 0.1 mg/mouse i.p.", "result": 16, "unit": "%"}, {"measurement": "Mean survival time", "setting": "[7]; 0.1 mg/mouse i.p.", "result": "> 8.8"}, {"measurement": "antitumor activity (in words)", "setting": "[7]; 2 mg / high doses, i.p., listed as sucrose bis(platinum) complex", "result": "significant antitumor activity; also recorded: definite antitumor activity"}, {"measurement": "Changes of body weight day 1 to 2", "setting": "[7]; 2 mg/mouse i.p.", "result": -1.5, "unit": "g"}, {"measurement": "Increase in life span", "setting": "[7]; 2 mg/mouse i.p.", "result": "> 111", "unit": "%"}, {"measurement": "Mean survival time", "setting": "[7]; 2 mg/mouse i.p.", "result": "> 16.0"}, {"measurement": "activity against P388 leukemia compared with cisplatin (in words)", "setting": "[7]; high doses", "result": "comparable to that of cisplatin against P388 leukemia"}, {"measurement": "systemic toxicity (in words)", "setting": "[7]; high doses", "result": "still not toxic systemically"}, {"measurement": "Changes of body weight day 1 to 7", "setting": "[3]; 2 mg/mouse i.p., day 1, 3", "result": -3.0, "unit": "g"}, {"measurement": "Increase in life span", "setting": "[3]; 2 mg/mouse i.p., day 1, 3", "result": "> 210", "unit": "%"}, {"measurement": "Mean survival days", "setting": "[3]; 2 mg/mouse i.p., day 1, 3", "result": "> 43.4", "unit": "days"}, {"measurement": "No. of mice survival/total", "setting": "[3]; 2 mg/mouse i.p., day 1, 3", "result": "3/5"}, {"measurement": "antitumor activity (in words)", "setting": "[3]; 2 mg×2 i.p.", "result": "substantial antitumor activity"}, {"measurement": "recovery, survival and tumor-free outcome (in words)", "setting": "[3]; 2 mg×2 i.p.", "result": "All of the mice treated, however, recovered the loss of body weight and were tumor-free by day 30"}, {"measurement": "toxicity to the host / body weight (in words)", "setting": "[3]; 2 mg×2 i.p.", "result": "significant reduction of body weight"}, {"measurement": "antitumor activity (in words)", "setting": "[3]; [11]", "result": "remarkable antitumor activity"}, {"measurement": "recovery, survival and tumor-free outcome (in words)", "setting": "[3]; [11]", "result": "All the mice treated gradually recovered from the toxicity; however, 2 mice died of tumor growth on days 32 and 35. Three mice survived healthy and tumor-free up to the end of the observation period (day 50)"}, {"measurement": "maximum tolerable dose", "setting": "[3]; i.p., per mouse, judged from body weight loss", "result": "~2", "unit": "mg×2"}, {"measurement": "Changes of body weight day 1 to 7", "setting": "[8]; 0.1 mg/mouse i.p., day 2, 4", "result": "+2.0 g"}, {"measurement": "Increase in life span", "setting": "[8]; 0.1 mg/mouse i.p., day 2, 4", "result": "> 135", "unit": "%"}, {"measurement": "Mean survival time", "setting": "[8]; 0.1 mg/mouse i.p., day 2, 4", "result": "> 48.8"}, {"measurement": "antitumor activity (in words)", "setting": "[8]; 0.1 mg×2 i.p.", "result": "significant antitumor activity"}, {"measurement": "tumor-free survival (in words)", "setting": "[8]; 0.1 mg×2 i.p., observation to day 50", "result": "Three mice survived healthy and tumor-free up to the end of the observation period (day 50)"}, {"measurement": "Cytotoxicity", "setting": "[9]; 11.2 nM, 14 days incubation", "result": "3+ (66% of the treated cells appear to be dead)"}, {"measurement": "minimum cytotoxic concentration", "setting": "[4]", "result": 10, "unit": "µg/mL"}]}, {"smiles": "COC1C(CN)OC(OC2(CN)OC(CN)C(OC)C2OC)C(OC)C1OC.[NH2][Pt]([Cl])[Cl].[NH2][Pt]([Cl])[Cl].[NH2][Pt]([Cl])[Cl]", "note": "(stereo not drawn) [Sample No. 7, N,N',N\"-tris[cis-amminedichloroplatinato]-1'6,6'-triamino-1',6,6'-trideoxy-2,3,3',4,4'-penta-O-methylsucrose]", "values": [{"measurement": "Changes of body weight day 1 to 7", "setting": "[3]; [12]", "result": -0.8, "unit": "g"}, {"measurement": "Increase in life span", "setting": "[3]; [12]", "result": "> 255", "unit": "%"}, {"measurement": "Mean survival days", "setting": "[3]; [12]", "result": "> 39.8", "unit": "days"}, {"measurement": "No. of mice survival/total", "setting": "[3]; [12]", "result": "3/5"}, {"measurement": "antitumor activity (in words)", "setting": "[3]; 0.5 mg×4 i.p.", "result": "remarkable antitumor activity"}, {"measurement": "reduction of body weight (in words)", "setting": "[3]; 0.5 mg×4 i.p.", "result": "moderate reduction of body weight"}, {"measurement": "survival and tumor-free outcome (in words)", "setting": "[3]; 0.5 mg×4 i.p., observation to day 50", "result": "Two mice died of tumor growth on day 22 and day 27. Three mice survived tumor-free until the end of the observation period (day 50)"}, {"measurement": "reduction of body weight (in words)", "setting": "[3]; 0.5 mg×4 i.p., listed as sucrose tris(platinum) complex", "result": "moderate .reduction in body weight"}, {"measurement": "Cytotoxicity", "setting": "[9]; 7.9 nM, 10 days incubation", "result": "3+ (66% of the treated cells appear to be dead)"}, {"measurement": "aqueous solubility (in words)", "setting": "[10]", "result": "Larger dosages were not possible because of the solubility constraints"}, {"measurement": "aqueous solubility (in words)", "setting": "[10]; listed as sucrose tris(platinum) complex", "result": "limited solubility"}, {"measurement": "minimum cytotoxic concentration", "setting": "[4]", "result": 10, "unit": "µg/mL"}]}, {"smiles": "NCCN.O=C1[O][Pt][O]C(=O)C12CC2", "note": "[Sample No. 9, cis-(ethylenediamino-N,N')-1,1-cyclopropanedicarboxylatoplatinum]", "values": [{"measurement": "cytotoxicity (in words)", "setting": "[5]", "result": "more toxic than Sample No. 10 or Sample No. 6"}]}, {"smiles": "NC1C(O)OC(CO)C(O)C1O.[NH2][Pt]([Cl])[Cl]", "note": "(centres unmarked) [Sample No. 11, N-(amminedichloroplatinato)-2-aminoglucose]", "values": [{"measurement": "cytotoxicity (in words)", "setting": "[5]", "result": "appears not to exhibit toxicity immediately but rather exhibits a delayed toxic response which occurs gradually during the incubation period"}]}, {"smiles": "N.N.[Cl-].[Cl-].[OH-].[OH-].[Pt+4]", "note": "[cis, cis-diamine-dichloro-trans-dihydroxoplatinum (IV)]", "values": [{"measurement": "prevention of DNA replication (in words)", "setting": "[1]", "result": "have the ability to prevent DNA replication in E. coli"}]}, {"smiles": "N.N.[Cl][Pt]([Cl])([Cl])[Cl]", "note": "[cis-cis-trans-diaminetetrachloroplatinum (IV)]", "values": [{"measurement": "prevention of DNA replication (in words)", "setting": "[1]", "result": "have the ability to prevent DNA replication in E. coli"}]}, {"smiles": "N.N.[Cl][Pt][Cl]", "note": "[transplatin, trans-diamine-dichloroplatinum (II)]", "values": [{"measurement": "prevention of DNA replication (in words)", "setting": "[1]", "result": "does not comprise this activity"}]}]}
